The text below walks through data of US20230118497A1, “PYRAZOLE-CONTAINING POLYCYCLIC DERIVATIVE INHIBITOR, PREPARATION METHOD THEREFOR AND APPLICATION THEREOF” (Shanghai Hansoh Biomedical Co., Ltd., priority 2019, published 2023).

One data set addresses T1, 1321N1-hP2X2/3 receptor (Homo sapiens, UniProt P56373+Q9UBL9).
T1 construct: host or cells: 1321N1
T1 sequence (P56373 1-397): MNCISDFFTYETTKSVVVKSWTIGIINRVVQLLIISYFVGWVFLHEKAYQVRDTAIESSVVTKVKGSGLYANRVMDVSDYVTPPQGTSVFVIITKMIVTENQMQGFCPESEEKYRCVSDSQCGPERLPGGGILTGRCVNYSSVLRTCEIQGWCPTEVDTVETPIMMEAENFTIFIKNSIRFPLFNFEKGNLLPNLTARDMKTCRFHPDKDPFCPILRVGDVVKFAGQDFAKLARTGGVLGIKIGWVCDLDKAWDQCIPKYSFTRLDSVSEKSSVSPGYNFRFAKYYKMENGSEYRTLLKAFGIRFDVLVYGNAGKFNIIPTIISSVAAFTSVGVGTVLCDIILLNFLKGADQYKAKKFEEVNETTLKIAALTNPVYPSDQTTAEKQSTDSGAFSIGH
T1 sequence (Q9UBL9 1-471): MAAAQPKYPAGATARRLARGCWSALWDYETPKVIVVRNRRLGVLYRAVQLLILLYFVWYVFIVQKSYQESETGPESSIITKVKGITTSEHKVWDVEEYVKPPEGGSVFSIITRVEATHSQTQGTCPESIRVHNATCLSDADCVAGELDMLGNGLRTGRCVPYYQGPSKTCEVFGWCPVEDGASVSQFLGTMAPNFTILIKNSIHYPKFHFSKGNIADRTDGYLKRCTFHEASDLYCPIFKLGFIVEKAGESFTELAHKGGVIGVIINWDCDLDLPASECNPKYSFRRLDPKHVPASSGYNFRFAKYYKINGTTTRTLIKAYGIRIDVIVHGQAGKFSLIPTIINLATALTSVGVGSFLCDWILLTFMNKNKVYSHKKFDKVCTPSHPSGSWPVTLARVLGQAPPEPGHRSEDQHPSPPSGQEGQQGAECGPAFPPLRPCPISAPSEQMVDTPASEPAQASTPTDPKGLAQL
As to the kind of experiment: Calcium ion mobility (FLIPR) in cells stably expressing 1321N1-hP2X2/3 receptors. In kind it is cell-based. The note with it: calcium signal, agonist at EC80. Here is the method: Test Example 2. Determination of the Effect of the Compounds of the Present Invention on Calcium Ion Mobility in Cells Stably Expressing 1321N1-hP2X2/3 Receptors
To determine the inhibitory activity of the compounds on 1321N1-hP2X2/3 receptor.
Stably transfected cell line: 1321N1-hP2X2/3 (supplied by Shanghai ChemPartner Chemical Research Co., Ltd.).
Assay buffer: 1*HBSS+20 mM HEPES;
Cell culture medium: DMEM+10% FBS+75 μg/mL Hygromycin B+150 μg/mL G418;
Plating medium: DMEM+10% DPBS;
0.5*Dye: 10*Dye stock+1.25 Probenecid+1*assay buffer+0.5 U/mL ATP hydrolytic enzyme;
2. The cells were cultured to 70%-90% confluency in the cell culture medium at 37° C., 5% CO2. The medium was discarded, and the cells were added with 2 mL of Versene, and the cells were placed in an incubator at 37° C. for 2 to 5 min. The cells were collected by addition of 10 mL of plating medium and counted. The cells were seeded to the 384-well assay plate by addition of 50 μL solution (a density of 1×10^4 cells/well) to each well, and incubated for 16 to 24 hours (at least overnight).
3. The medium was discarded, and 30 μL of 1× dye was added. The cells were incubated at 37° C. in the dark for 60 min.
4. The compound powder was dissolved in DMSO to obtain a 20 mM stock solution. 180× compound with required concentration was formulated, and diluted in gradient for concentration points.
5. Preparation of compound plate: 500 nL of 180× compound was transferred to the compound plate (source plate for FLIPR) using ECHO. 30 μL of assay buffer was added to each well, and the plate was shaken gently for 20 to 40 minutes.
6. Determination: 15 μL of 3× compound was taken from each well and added to the cell plate. The samples were added by FLIPR instrument, and the calcium signals were detected. After 15 minutes, 22.5 μL of 3× agonist (EC80 concentration) was added to each well and the calcium signals were detected.
The calcium signal values were determined by FLIPR. The ratio of the 340/510 nm wavelength signals to 380/510 nm wavelength signals was used as the calculated results for each sampling time point in the experiment. The calculation of maximum minus minimum was derived from the ratio signal curve.
The percent inhibition rate and ten-point concentration data were fitted to the parametric nonlinear logistic equation by using GraphPad prism to calculate the IC50 values of the compounds.

Data set [1] in a line: Pharmacokinetic assay in Balb/C mice. In kind it is in vivo. To be noted: male, mouse, po, p.o. 5 mg/kg, plasma, 0.5% CMC-Na (1% Tween 80); for AUC(0-t): read-out: Area under curve AUC0-t; for MRT inf: read-out: Average residence time MRT0-∞; for half-life: read-out: Half life t1/2 (converted); for Tmax: read-out: Peak time tmax; for Cmax: read-out: Plasma concentration Cmax. Here is the method: Test Example 3. Pharmacokinetic Assay in Balb/C Mice
Balb/C mice were used as test animals. The pharmacokinetic behavior of the compounds of Examples was studied in mouse body (plasma) by orally administration at a dose of 5 mg/kg.
Male Balb/C mice (6 mice per group), purchased from Shanghai Jiesijie Laboratory Animal Co., LTD, with Certificate No.: SCXK (Shanghai) 2013-0006 N0.311620400001794.
5 g of hydroxyethyl cellulose (HEC, CMC-Na, viscosity: 800-1200 Cps) was weighed and dissolved in 1000 mL of purified water, followed by addition of 10 g of Tween80.
After an overnight fast, male Balb/C mice were administered p.o. with the test compound at a dose of 5 mg/kg and a volume of 10 mL/kg.
0.04 mL of blood was taken from the orbit of the mouse before administration and at 0, 0.5, 1, 2, 4, 6, 8 and 24 hours after administration. The samples were stored in EDTA-K2 tubes, and centrifuged for 6 minutes at 4° C., 6000 rpm to separate the plasma. The plasma samples were stored at −80° C.
1) 160 μL of acetonitrile was added to 20 μL of the plasma sample for precipitation, and then the mixture was centrifuged at 3500×g for 5 to 20 minutes. 2) After the above process, 100 μL of the supernatant was taken to analyze the concentration of the test compound by LC/MS/MS.
2.7 Liquid Chromatography Analysis • Liquid chromatography condition: Shimadzu LC-20AD pump • Mass spectrometry condition: AB Sciex API 4000 mass spectrometer • Chromatographic column: phenomenex Gemiu 5 um C18 50×4.6 mm • Mobile phase: Eluent A was 0.1% formic acid in water, and Eluent B was acetonitrile • Flow rate: 0.8 mL/min • Elution time: 0-4.0 minutes the eluent is as follows:
The main parameters of pharmacokinetics were calculated by WinNonlin 8.2.

The IC50 is the point on the concentration scale where inhibition reaches its midpoint. The Tmax is the time from dosing to the highest level.

Consider `CCc1cc2n(CC(=O)Nc3ccc(F)cn3)c(=O)c3ccc(C(F)(F)F)nc3n2n1` [Example 34, 2-(2-Ethyl-5-oxo-8-(trifluoromethyl)pyrazolo[1,5-a]pyrido[3,2-e]pyrimidin-4(5H)-yl)-N-(5-fluoropyridin-2-yl)acetamide], for which, at 1321N1-hP2X2/3 receptor, the IC50 was found to be 25.2 µM. Moreover, in data set [1], the AUC(0-t) is 7580 ng·h/mL, the MRT inf is 2.3 h, the half-life was 1.4 h and the Tmax is 1 h. Besides, the Cmax in data set [1] was found to be 2360 ng/mL.
Consider `O=C(Cn1c(=O)c2ccc(C(F)(F)F)nc2n2nc(Br)cc12)Nc1ccc(F)cn1` [Example 61-A, 2-(2-bromo-5-oxo-8-(trifluoromethyl)pyrazolo[1,5-a]pyrido[3,2-e]pyrimidin-4(5H)-yl)-N-(5-fluoropyridin-2-yl)acetamide], for which the IC50 at 1321N1-hP2X2/3 receptor is 6.36 µM. In data set [1], the AUC(0-t) was 30500 ng·h/mL, the MRT inf was determined as 5.6 h, the half-life is 4.6 h and the time to peak (Tmax) was determined as 2 h. Besides, the Cmax in data set [1] worked out at 3430 ng/mL.
Regarding `N#Cc1cc2n(CC(=O)Nc3ccc(F)cn3)c(=O)c3ccc(C(F)(F)F)nc3n2n1` [Example 68, 2-(2-Cyano-5-oxo-8-(trifluoromethyl)pyrazolo[1,5-a]pyrido[3,2-e]pyrimidin-4(5H)-yl)-N-(5-fluoropyridin-2-yl)acetamide], at 1321N1-hP2X2/3 receptor, the IC50 was found to be 5.63 µM. In addition, in data set [1], the AUC(0-t) amounted to 10200 ng·h/mL, the MRT inf came out at 3.8 h, the half-life is 1.8 h and the Tmax was 2 h. Also, the Cmax in data set [1] is 1830 ng/mL.
On to `O=C(Cn1c(=O)c2ccc(C(F)(F)F)nc2n2nccc12)Nc1ccc(F)cn1` [Example 78, N-(5-Fluoropyridin-2-yl)-2-(5-oxo-8-(trifluoromethyl)pyrazolo[1,5-a]pyrido[3,2-e]pyrimidin-4(5H)-yl)acetamide], for which, on 1321N1-hP2X2/3 receptor, the IC50 was 4.52 µM. For the same molecule, in data set [1], the AUC(0-t) stood at 5040 ng·h/mL, the MRT inf came to 2.5 h, the half-life was 1.6 h and the Tmax was 1 h. Further, in data set [1], the Cmax amounted to 1290 ng/mL.
As for `N#Cc1cnn2c3nc(C(F)(F)F)ccc3c(=O)n(CC(=O)Nc3ccc(F)cn3)c12` [Example 80, 2-(3-Cyano-5-oxo-8-(trifluoromethyl)pyrazolo[1,5-a]pyrido[3,2-e]pyrimidin-4(5H)-yl)-N-(5-fluoropyridin-2-yl)acetamide], the IC50 at 1321N1-hP2X2/3 receptor was determined as 3.04 µM.
